Earlier results, collected in patent publication US20150040249A1, “Non-Human Animal Models of Depression and Methods of Use Thereof” (The Board of Trustees of the Leland Stanford Junior …, priority 2012, published 2015).

Assays:
[1] = rats; in vivo electrophysiological recordings
NMDAR = settings: humans; acute

Compound | reduced bursting activity in depression models [1] | depression-like symptoms (NMDAR)
CNCCCN1c2ccccc2CCc2ccccc21 [desipramine] | restored | 
CNC1(c2ccccc2Cl)CCCCC1=O (centres unmarked) [ketamine] |  | can acutely improve depression-like symptoms
